Entries after “also recorded” stand apart in the source; their conditions may differ. Ends that are not written are not given here.
How the values were obtained:
sham-operated mice = assay: Food intake after intragastric GABA in sham-operated mice (FIG. 1B); type: in vivo; settings: GABA 200 mg/kg intragastric
Protocol: (§1) In order to examine the involvement of the vagus nerve which is a visceral sensory nerve, the food intake reducing effect by intragastric administration of GABA was examined using sensory nerve disorder model mice by subcutaneous administration of capsaicin or subdiaphragmatic vagotomized mice. The sensory nerve disorder model mice by subcutaneous administration of capsaicin were prepared as follows. 50 mg/kg of capsaicin (5 ml/kg, solution composition: 10% ethanol, 10% Tween 80, 80% physiological saline) was subcutaneously administered to C57BL/6J male mice under tribromoethanol (200 mg/kg, intraperitoneal administration (ip)) anesthesia, and after 2 days, 50 mg/kg of capsaicin was subcutaneously administered under similar anesthesia. Further, after 2 days, 10 mg/kg of capsaicin was intraperitoneally administered under no anesthesia. After a recovery period of 5 to 7 days, an experiment of food intake was performed. In sham operation and subdiaphragmatic vagotomy, surgery was performed on C57BL/6J male mice under tribromoethanol (200 mg/kg, ip) anesthesia. […] All the mice were fasted overnight (16 hours) on the day before the experiment of food intake, then intragastrically administered a single dose of physiological saline or GABA (200 mg/kg) from 9:45, and fed at 10:00, and the food intake by free-feeding was measured over time. […]

GLP-1 [1] = assay: GLP-1 secretion after glucose with or without GABA, portal plasma ELISA (Example 7, FIG. 10); type: in vivo, mice; settings: addition of GABA (2, 20, 200 mg/kg) to glucose 1 g/kg oral, 15 minutes
vagal afferent nerves = assay: pERK1/2 immunostaining of nodose ganglion, nucleus tractus solitarius and area postrema (Example 4, FIG. 4, 5); type: in vivo, mice; settings: 30 minutes
Protocol: C57BL/6J male mice were acclimated to the environment and experimental work by preliminary rearing and handling for 1 week or more in individual cages. […] They were post-fixed, and a frozen section specimen was prepared. Using this frozen section specimen, immunostaining of phosphorylated ERK1/2 (pERK1/2), which is a neural activation marker, was performed, and each organ section was photographed with a fluorescence microscope and analyzed.

[2] = tested on: Healthy C57BL/6J male mice; assay: Food intake after intragastric GABA just before feeding in fasted healthy mice (Example 1, FIG. 1A); type: in vivo; settings: GABA solution 20 mg/kg or 200 mg/kg po just before feeding, compared with physiological saline
Protocol: As experimental animals, C57BL/6J male mice were used. The mice were acclimated to the environment by preliminary rearing for 1 week or more in individual cages in the free-eating and drinking environment at a temperature of 23±2° C., a humidity of 55±10%, a 12 hour light-dark cycle (light period: 7:30 to 19:30). The animal experiment was conducted with approval in accordance with the guidelines of the Committee for Animal Research of Kyoto Prefectural University. […] In each administration, the mice were intragastrically administered (po) a single dose of physiological saline as a control group and GABA (2 mg/kg, 20 mg/kg, 200 mg/kg) as a test group at a dose of 10 ml/kg using a sonde (stainless steel feeding needle). […] The amount of the feed taken is expressed as the cumulative food intake (kcal) or the food intake at each time (kcal) (FIG. 1A). The cumulative food intake (kcal) also includes energy of administered GABA (3.95 kcal/g).

GLP-1 [3] = assay: Fructose-induced GLP-1 secretion, portal plasma ELISA (Example 9, FIG. 13); type: in vivo, mice
human subjects = assay: Human test: VAS satiety and appetite, and calorie intake of a lunch box after GABA intake (Example 6); type: in vivo; settings: GABA 100 mg before lunch box, versus placebo
Protocol: It was examined whether GABA administration also affects the food intake in humans. In 13 human subjects (25 to 43 years old, 5 males and 8 females), changes in the food intake in the presence or absence of GABA administration were confirmed in the following test outline. Specifically, each subject was fasted from 21:00 on the day before the test, and subjective evaluation (satiety, hunger, appetite) was performed by the VAS questionnaire at 12:00 on the test day. Thereafter, a sample (placebo group: dextrin, GABA group: GABA 100 mg) was taken in together with 50 mL of water, and immediately after that, diet (lunch box) was taken. Immediately after diet, at 30 minutes, 60 minutes, and 120 minutes after diet, subjective evaluation (satiety, hunger, appetite) was performed again by the VAS questionnaire, and the remaining amount of a lunch box was photographed to calculate intake kcal.

GIP [4] = assay: Glucose-induced GIP secretion, portal plasma ELISA (Example 7, FIG. 10); type: in vivo, mice; settings: GABA (2, 20, 200 mg/kg) with glucose 1 g/kg oral, 15 minutes
[5] = tested on: Healthy C57BL/6J male mice; assay: Food intake after sucrose with or without GABA (Example 10, FIG. 14); type: in vivo
Protocol: Thereafter, the mice were fed at 10:00 on the test day, and the food intake by free-feeding was measured over time.

[6] = tested on: Healthy C57BL/6J male mice; assay: Food intake after GABA, enteral nutrient or both 30 minutes before feeding, healthy mice (Example 2, FIG. 2); type: in vivo
Protocol: Saline (40 ml/kg, po), GABA (200 mg/kg, po), EnsureH (40 ml/kg, po, 1.5 kcal/g) which is an enteral nutrient manufactured by Abbott Japan LLC, or EnsureH+GABA (GABA 200 mg/kg in Ensure, 40 ml/kg, po) were administered from 9:15. The mice were fed 30 minutes after administration, and freely fed. […] At 0.5 h or after, the cumulative food intake (kcal) of the forcibly administered solution and the feed taken was shown (FIG. 2).

GIP [7] = assay: Blood total GIP concentration 30 minutes after intragastric administration (Example 5, FIG. 6); type: in vivo, mice
Protocol: (§2) Healthy C57BL/6J male mice were fasted for 16 hours from 18:00 the day before the experiment. At 10:00, various solutions shown in the figure were intragastrically administered (40 ml/kg). Thirty minutes after administration, blood was collected from the portal vein under isoflurane anesthesia. An anticoagulant (heparin (final concentration 50 IU/ml)) and a peptide degradation inhibitor (aprotinin (final concentration 500 KIU/ml) and vildagliptin (final concentration 10 μM)) were added in advance to the sampling syringe. The collected blood was cooled and centrifuged and stored at −80° C. until the obtained plasma was analyzed. The total GIP concentration (A) and the total GLP-1 concentration (B) in the blood were analyzed using ELISA kits (EZGLP1T-36K and EZRMGIP-55K) manufactured by Millipore Corporation.

GIP [8] = assay: Isomerized sugar-induced GIP secretion, portal plasma ELISA (Example 9, FIG. 13); settings: GABA 60 mg/kg po with glucose+fructose 1 g/kg each
GLP-1 [9] = assay: Blood total GLP-1 concentration 30 minutes after intragastric administration (Example 5, FIG. 6); type: in vivo, mice
Protocol: as §2

[10] = tested on: subdiaphragmatic vagotomized mice; assay: Food intake after intragastric GABA in subdiaphragmatic vagotomized mice (FIG. 1B); type: in vivo; settings: GABA 200 mg/kg intragastric, afferent vagotomy
Protocol: as §1

[11] = tested on: sensory nerve disorder model mice by subcutaneous administration of capsaicin; assay: Food intake after intragastric GABA in capsaicin sensory nerve disorder model mice (FIG. 1B); type: in vivo; settings: GABA 200 mg/kg intragastric, capsaicin treatment
Protocol: as §1

[12] = tested on: Healthy C57BL/6J male mice; assay: Food intake after glucose, fructose, isomerized sugar with or without GABA (Example 8, FIG. 11, 12); type: in vivo; settings: fructose 1 g/kg po alone, compared with control group (saline)
Protocol: Thereafter, the mice were fed at 10:00 on the test day, and the food intake by free-feeding was measured over time. […] The effect of GABA on the inhibitory action on fructose-induced satiety by glucose was examined. […] Thereafter, the mice were fed at 10:00 on the test day, and the food intake by free-feeding was measured over time.

C57BL/6J male mice = assay: Conditioned taste aversion test (saccharin preference, Example 3, FIG. 3); type: in vivo; settings: lithium chloride 3 mmol/kg intraperitoneal
Protocol: C57BL/6J male mice reared in individual cages were given two bottles of water only for 2 hours from 10:00 to 12:00 for 5 days, whereby the mice were acclimated to the water restriction schedule. On day 6, a 0.15% saccharin solution was presented for 30 minutes, and thereafter, lithium chloride (3 mmol/kg) was intraperitoneally administered, whereby the mice were made to acquire an aversion to the taste of the saccharin solution (conditioning). In the same manner, a control group to which physiological saline (10 mL/kg) was intragastrically administered and a test group to which GABA (200 mg/kg) was intragastrically administered were prepared. On day 7 serving as a rest day, the above-described water restriction schedule was performed. On day 8 serving as a test day, two bottles of a 0.15% saccharin solution and water were simultaneously presented for 30 minutes, and the preference of the saccharin solution (saccharin intake/total intake of two bottles×100, %) was determined.

obese patients = settings: Bergmann et al. 2019, cited from earlier work
[13] = tested on: afferent nerves in the hepatic branch of the vagus nerve; settings: administration into the hepatic portal vein; J Auton Nerv Syst. 1996; cited from earlier work
[14] = GABA addition to enteral nutrients, 30 minutes after administration
[15] = GABA alone, intragastric 40 ml/kg, 30 minutes after administration
[16] = addition of GABA to the liquid food (EnsureH), 30 minutes

Molecule: NCCCC(=O)O [GABA, γ-Aminobutyric acid]
- ability to induce the transient satiety or to suppress binge eating on a fasting condition (food intake) (sham-operated mice): similarly observed
- GLP-1 secretion (GLP-1 [1]): does not significantly enhance
- afferent vagal activation by nutrient (pERK1/2) (vagal afferent nerves; GABA 200 mg/kg in EnsureH 40 ml/kg po, compared with EnsureH alone): significantly enhances
- afferent vagal activity (neuron activities of vagal afferent nerves, nucleus tractus solitarius, area postrema; pERK1/2) (vagal afferent nerves; GABA alone 200 mg/kg po, compared with physiological saline): does not affect
- fasting food intake within 1 hour from the start of diet after fasting ([2]; 16 h fasted): significantly reduced
- food intake within 2 hours from the start of diet after fasting ([2]; 16 h fasted): reduces
- food intake after 2 hours from the start of eating [2]: not always changed
- fructose-induced GLP-1 secretion (GLP-1 [3]; GABA 60 mg/kg po): further enhances
- GLP-1 secretion (GLP-1 [3]; further addition of GABA 60 mg/kg po to glucose+fructose 1 g/kg each): enhanced
- feeling of satiety (VAS) (human subjects; immediately after diet, 30 minutes and 60 minutes after diet): significantly increased
- appetite after diet (VAS) (human subjects): significantly reduced; also recorded: suppressed
- calorie intake (human subjects): significantly low value
- feeling of satiety, area under the curve (AUC) (human subjects): significant increase; also recorded: significantly increased
- glucose-induced GIP secretion (GIP [4]): suppresses
- feeling of satiety ([5]; GABA 200 mg/kg po taken together with sucrose 2 g/kg po): significantly induces
- eating behavior after the start of eating ([6]; GABA 200 mg/kg po alone 30 minutes before eating, compared with physiological saline): not different
- satiety via vagal afferent nerves ([6]; GABA addition to enteral nutrients, 30 minutes before feeding): enhances
- food intake reducing effect ([6]; administration of GABA 30 minutes before diet): greatly reduced
- GIP secretion (blood GIP increase by nutrient) (GIP [7]; [14]): suppress; also recorded: suppresses
- blood GIP concentration (GIP [7]; [15]): no change
- GIP concentration relative to liquid food alone (GIP [7]; [16]): about ⅓
- isomerized sugar-induced GIP secretion (GIP [8]): suppresses
- GLP-1 secretion (blood GLP-1 increase by nutrient) (GLP-1 [9]; [14]): increase; also recorded: promotes
- blood GLP-1 concentration (GLP-1 [9]; [15]): no change
- GLP-1 concentration relative to liquid food alone (GLP-1 [9]; [16]): approximately double
- ability to induce the transient satiety or to suppress binge eating on a fasting condition (food intake) [10]: impaired
- ability to induce the transient satiety or to suppress binge eating on a fasting condition (food intake) [11]: impaired

Molecule: O=C(CO)[C@@H](O)[C@H](O)[C@H](O)CO [fructose, reference compound]
- food intake [12]: suppressed
- GLP-1 secretion (GLP-1 [3]; fructose 1 g/kg po): enhances

Molecule: [Cl-].[Li+] [lithium chloride]
- aversion (C57BL/6J male mice): induces aversion
- preference of saccharin (C57BL/6J male mice; conditioning day 6, test day 8): reduced

Molecule: OC[C@H]1O[C@@](CO)(O[C@H]2O[C@H](CO)[C@@H](O)[C@H](O)[C@H]2O)[C@@H](O)[C@@H]1O [sucrose, reference compound]
- satiety inducing action (intake inhibitory action) ([5]; sucrose 2 g/kg po alone): not observed

Molecule: Glucose-dependent insulinotropic polypeptide [GIP]
- effect of GLP-1 on energy intake (obese patients; GIP administered simultaneously with GLP-1): attenuated
- neural activity of afferent nerves in the hepatic branch of the vagus nerve [13]: does not result in any change

Molecule: glucagon-like peptide-1 (HAEGTFTSDVSSYLEGQAAKEFIAWLVKGR; ends and bridges not checked; UniProt P01275 98-127, looked up) [GLP-1, incretin hormone produced in endocrine L cells]
- energy intake (obese patients; GLP-1 intravenously to obese patients): reduced
- neural activity of afferent nerves in the hepatic branch of the vagus nerve [13]: significant increase

— patent publication US20250221950A1, “GABA-CONTAINING COMPOSITION” (priority 2021, published 2025)
